Reference: patent US20170023550A1, “ENGINEERED THREE-DIMENSIONAL BREAST TISSUE, ADIPOSE TISSUE, AND TUMOR DISEASE MODEL” (Organovo, Inc., priority 2014, published 2017)

Key:
Assay type in all cases: cell-based, human
[1] = test system: bioprinted breast cancer tumor models (cancer and stromal compartments); assay: Apoptosis by TUNEL staining with CK8 and TE7 markers in bioprinted breast cancer tumor model; conditions: 100 μM cisplatin for 4 days; FIG. 22
Description: (§1) The breast cancer tumor models included a nodule of human breast cancer cells surrounded by a physiologically-relevant stromal layer, which included human adipocytes differentiated from human mesenchymal stem cells, human mammary fibroblasts, and human endothelial cells. The adipocytes were derived from mesenchymal stem cells which were isolated an exposed to an adipocyte differentiation signal prior to preparation of the bio-ink and bioprinting.
Referring to FIG. 22, bioprinted tissues were treated with vehicle (A-C) or 100 μM cisplatin (D-F) for 4 days. The first (A and D) and second (B and E) columns depict tissues assessed for apoptosis by TUNEL staining (green) and markers for cancer cells (CK8, red). The last ([…]) column depicts tissues assessed for apoptosis by TUNEL staining (green) and markers for fibroblasts (TE7, red).

[2] = test system: bioprinted breast cancer constructs (MCF7/HUVEC cancer node surrounded by NHMF, HUVEC, SPA stroma); assay: Construct viability after drug treatment by alamarBlue assay; conditions: 10 μM compound for 3 days, followed by 100 μM compound for 24 hours; FIG. 14
Description: The stromal compartment of the constructs was comprised of 65% NHMF, 25% HUVEC, and 10% SPA (partially pre-differentiated). The cancer compartment of the constructs was comprised of 75% MCF7, 25% HUVEC. For each compartment, cells were mixed together at the indicated ratio and resuspended in Novogel® 3.0 at a concentration of 150 million cells/ml. Constructs were printed as 3 layered structures with a dimension of 3 mm×3 mm×0.75 mm. Immediately following bioprinting, constructs were stabilized via crosslinking After 2 minutes, the calcium crosslinking solution was aspirated and replaced with culture media. After 2 days in culture, constructs were treated overnight with enzyme dissolved in culture media to remove the Novogel® 3.0. Constructs were then incubated for up to 9 additional days. All compounds were acquired from Sigma-Aldrich and were dissolved in DMSO. Compounds were diluted to a final concentration of 10 μM or 100 μM in media. The final DMSO concentration was 0.1%, which was used for vehicle treatment. Constructs were assessed for metabolic activity by alamarBlue assay (Life Technologies, Carlsbad, Calif.) or CellTiter Glo assay (Promega, Madison, Wis.). Constructs were treated for 24 hours for labeled compound uptake studies, or for 4 days for assessment of metabolic activity.

[3] = test system: breast cancer cells in two-dimensional cell culture and bioprinted breast cancer tumor models; assay: Tamoxifen drug response by ATP luciferase assay, two-dimensional breast cancer cell culture compared to bioprinted breast cancer tumor models; conditions: 10 μM tamoxifen for 48 hours; FIG. 20
Description: as §1
The breast cancer tumor models were exposed to chemotherapy compounds in order to access drug response. Referring to FIG. 20, breast cancer cells grown in two-dimensional cell culture (A) and the bioprinted breast cancer tumor models (B) were treated with media alone, DMSO, or 10 μM tamoxifen for 48 hours and assessed for viability by ATP luciferase assay. For each graph, * indicates p<0.05 for treatment compared to control.

N.N.[Cl][Pt][Cl] [Cisplatin, cisplatin]
apoptosis by TUNEL staining, stromal compartment vs cancer compartment [1]: induces greater apoptosis in the stromal compartment of bioprinted tissues than in the cancer compartment | construct viability relative to media or vehicle controls (alamarBlue) [2]: decreased construct viability

CC(=O)O[C@H]1C(=O)[C@@]2(C)[C@H]([C@H](OC(=O)c3ccccc3)[C@]3(O)C[C@H](OC(=O)[C@H](O)[C@@H](NC(=O)c4ccccc4)c4ccccc4)C(C)=C1C3(C)C)[C@]1(OC(C)=O)CO[C@@H]1C[C@@H]2O [paclitaxel]
construct viability relative to media or vehicle controls (alamarBlue) [2]: decreased construct viability

CC/C(=C(\c1ccccc1)c1ccc(OCCN(C)C)cc1)c1ccccc1 [tamoxifen]
susceptibility to tamoxifen-induced toxicity, two-dimensional cancer cells vs three-dimensional bioprinted constructs (viability by ATP luciferase assay) [3]: more susceptible to tamoxifen-induced toxicity than cells incorporated into three-dimensional bioprinted constructs
